The test system of one data set is TNF-α. The data set can be described thus: TNF-α secretion by LPS-stimulated THP-1 differentiated macrophages (Biolegend ELISA). It counts as cell-based, human. The conditions noted are these: THP-1 differentiated macrophages treated 24 hrs. prior to LPS stimulation. As for the experimental part:
TNF-α is secreted by macrophages in response to stimulation by endotoxins such as lipopolysaccharides (LPS). TNF-α is thought to be involved in systemic inflammation and dysregulation of TNF-α production is thought to be involved in many diseases. The Biolegend assay is a sandwich ELISA kit that is designed for the accurate quantitation of human TNF-α from cell culture supernatant, serum or plasma.
THP-1 monocytes were seeded in a 96 well plate at 10,000 cells per well in RPMI containing 10% fetal calf serum (FCS), 1% Pen/strep, 1% L-glutamine, 100 nM PMA and allowed to differentiated for 72 h prior to experimentation.
Following differentiation the cells were incubated with 100 ng/ml, 10 ng/ml or 1 ng/ml synthetic peptide for 24 h respectively.
Following treatment the cells were stimulated with 10 ng/ml LPS for 5 h and the quantity of TNF-α in the supernatant determined using the Biolegend assay ELISA kit.
Results were calculated as a percentage of the untreated control. An increase in optical density reading indicates greater quantity of TNF-α release into cell culture supernatant.
All experiments were prepared in duplicate on three plates (6 wells/conditions). Significance was calculated using Students t-test (*p<0.05 compared to control, **p<0.01 compared to control, *** p<0.001 compared to control).

Data set [1] concerns keratinocytes of the basal layer of the epidermis. As to the kind of experiment: Ki67 immunohistochemistry (mitotic index) in skin explants. It is filed as cell-based, Human. As for the experimental part:
(§1) Skin explants were prepared from abdominal plastic surgery. Some explants were delipidated with alcohol to obtain a dehydrated skin.
(§2) These explants were maintained in maintenance medium supplied by the provider Biopredic International for 5 days. Test items are applied twice per day with 5 μL per explant.
(§3) For each time of analysis (D1 and D5), histologies on delipidated explants, treated explants with test items, the DMSO 0.3% control and water control, are performed.
(§4) After receipt in the laboratory, each skin explant in the maintenance medium is delipidated with 5 μL alcohol during 3 hours.
(§5) After 3 hours, all skin explants are treated two per day with test items, and they are incubated at 37° C.+/−2° C., 5% CO2 for 1 day or 5 days.
Epithelial proliferation was analyzed by immunohistochemistry using anti-Ki67 antibody. […] Counting the number of labeled cells (keratinocytes of the basal layer of the epidermis) is performed and provides the total number of basal cells to calculate the % of labeled cells.
The results of the immunohistochemical analysis of Ki67 are reported in Table 5 and expressed as % of labelled at the basal layer of the epidermis. The Error! […] Immunohistochemical analysis of mitotic activity is shown in annex 4 with a reminder of the average for each analysed conditions.

In data set [2] the test system is elastic fibers of the dermis. As to the kind of experiment: morphometric quantification of elastic fibers in skin explants. The note with it: for Morphometric quantification of elastic fibers in the middle dermis (%) / Morphometric quantification of elastic fibers in the superficial dermis (%): applied twice per day, 5 μL per explant. It counts as cell-based, Human. As to the method:
as §1, §2, §3, §4, §5
The immunohistochemical staining intensity in the elastic fibers is evaluated using a semi-quantitative histological score.
The percentage area taken up by elastic fibers in the dermis was calculated in the dermis and the average superficial dermis. Results are presents in Table 4, FIG. 2 and FIG. 3.

For a further data set, the system named is GLUT4. The data set can be described thus: GLUT4myc translocation in L6 myotubes. It is filed as cell-based. An excerpt:
We determined the effect of six synthetic peptides (SP1-6) and four peptide compositions on in vitro GLUT4 translocation using the L6 rat skeletal muscle cell line. A clone of the L6 cell line containing overexpression of GLUT4 tagged with a c-myc epitope (courtesy of Prof. Amira Klip, Hospital for Sick Children, Toronto) was used to investigate the efficacy of each synthetic peptide and peptide composition for effects on GLUT4 translocation in a dose-response design.
L6-GLUT4myc cells were grown in 10% FBS and 2 μg/ml blasticidin. Cells were grown for 48-72 hours before being seeded in 24-well plates at 15,000 cells per well in 2% FBS and allowed to differentiate for 6 to 8 days prior to experimentation.
L6-GLUT4myc cells were serum-starved for three hours prior to incubation with 100 nM of insulin for 30 mins, or 200, 20, 2.0 and 0.2 μM of SP, and 2, 1, 0.5 and 0.25 mg/ml of peptide composition for 3 hours respectively. A 3 hour incubation period was selected based on previous findings identifying that incubation with branch chain amino acid containing di-peptides for 3 hours increases glucose uptake in L6 myotubes 1. Treatments were staggered in order to determine GLUT4myc translocation at the same time point.
The quantity of myc-tagged GLUT4 at the cell surface was measured by antibody-coupled colorimetric assay. Briefly, after incubation with either insulin for 30 mins or synthetic peptide or peptide composition for 3 hours respectively, L6-GLUT4myc cells were fixed via incubation with 3% paraformaldehyde (PFA). A 0.1 M glycine solution was then added to quench PFA and cells were blocked with 5% goat serum. The myotube monolayer was exposed to anti-myc antibody and then incubated with peroxidase conjugated donkey anti-mouse IgG. 1 mL of o-phenylenediamine dihydrochloride (OPD) reagent was added to each well and this reaction was stopped by adding […] of 3 M HCL. To determine GLUT4 translocation to cell surface, a measured aliquot of each condition was determined spectrophotometrically on a plate reader using absorbance at 492 nm.
In addition to an untreated control, 100 nM insulin was utilised to stimulate a maximal GLUT4 translocation response i.e. a positive control in each experiment. […] Treatments were staggered so that all conditions (untreated, insulin and sample) were processed at the same time-point.

A further data set deals with E. coli ATCC 25922. The data set can be described thus: microbe, parasite or virus in culture. It counts as cell-based. The note with it: for zone of inhibition at 64 µg/mL: Escherichia coli, 10 μL at 64 μg/mL on disk, read-out: Inhibition zone diameter (mm). As to the method:
(§6) Blank disks were placed in the plates and 10 μL of each compound (at 64 μg/mL—maximum concentration tested) added.
(§7) After incubation period results were registered and plates photographed.

The next data set deals with A. baumannii ATCC 19606. The data set can be described thus: antibacterial activity testing in solid media (disk, Mueller-Hinton plates). On the set-up: key to Inhibition zone diameter (mm): NI—No Inhibition of growth. It is filed as cell-based, Acinetobacter baumannii. The conditions noted are these: for Inhibition zone diameter (mm) / zone of inhibition at 64 µg/mL: 10 μL at 64 μg/mL on disk; for zone of inhibition at 64 µg/mL: Acinetobacter baumannii, read-out: Inhibition zone diameter (mm). As to the method: as §6, §7

The subject of a further data set is MRSA ATCC 43300. As to the kind of experiment: microbe, parasite or virus in culture. It counts as cell-based, Methicillin-Resistant Staphylococcus aureus. The note with it: for zone of inhibition at 64 µg/mL: Staphylococcus aureus, 10 μL at 64 μg/mL on disk, read-out: Inhibition zone diameter (mm). As for the experimental part:
as §6, §7

Setting [3] is: final result, not at the levels of susceptibility.

The record followed here is patent US20180291070A1, “PEPTIDES, AND USES THEREOF” (priority 2015, published 2018).

Read-outs that look alike come from different tables or passages of the source. Ends that are not written are not given here.

Take DEHQKIHQFR [0723.08]: the “TNF-α secretion reduced vs. untreated cells” value with TNF-α came out at 80%. In addition, the figures for the “% of Ki67 positive cells in the basal layer of the epidermis” value in data set [1] (D1) and in data set [1] (D5) were 27.83% and 5.72%, respectively. The “number of mitotic cells compared to EGF” value in data set [1] (day 1) is on record as “increase”. In addition, the “Morphometric quantification of elastic fibers in the middle dermis (%)” value in data set [2] (D1) is 3.52%; in data set [2] (D5), 7.27%. Further, the “Morphometric quantification of elastic fibers in the superficial dermis (%)” value is reported as 2.7% in data set [2] (D1) and 5.32% in data set [2] (D5).
With “VLDLAIPVNRPGQL [SP2, glucose transport promoting fragment of Pea Protein P13918, Section C]”, in the data set with GLUT4 (0.2-2 μM, 3 hours), the GLUT4 translocation result is recorded as “trend for SP2 to increase GLUT4 translocation”. Besides, the “stimulatory effect on skeletal muscle GLUT4 translocation” value in the data set with GLUT4 (conclusion of the experiment) is listed as “trend for stimulatory effect”.
As to DTFYNAAWDPSNR [SP1, reference compound], in the data set on GLUT4 (200 μM, L6-GLUT4myc cells), the cell viability entry is on record as “poor cell viability”.
Take LNSQKFPILNLVQLSATR [I_87_SF]: the results for the inhibition zone with E. coli ATCC 25922 (ATCC 25922) and with MRSA ATCC 43300 (agar plates) were 9-10 mm and 18 mm, respectively. Besides, the results for the inhibitory activity entry with E. coli ATCC 25922 (setting [3]), with A. baumannii ATCC 19606 (final result) and in the data set on MRSA ATCC 43300 (setting [3]) were “some inhibitory activity”, “No activity” and “some inhibitory activity”, respectively. The “Inhibition zone diameter (mm)” value in the data set on A. baumannii ATCC 19606 (Rep 1), in the data set on A. baumannii ATCC 19606 (Rep 2) and with A. baumannii ATCC 19606 (Rep 3) was “NI” in each case.
For the compound `O=C(O)c1cn(C2CC2)c2cc(N3CCNCC3)c(F)cc2c1=O` [CIP, Ciprofloxacin], the zone of inhibition at 64 µg/mL in the data set on E. coli ATCC 25922 (ATCC25922, Rep 1) turned out to be 42 mm; in the data set on E. coli ATCC 25922 (ATCC25922, Rep 2), 40 mm; in the data set with E. coli ATCC 25922 (ATCC25922, Rep 3) it was 42 mm; in the data set on A. baumannii ATCC 19606 (ATCC19606, Rep 1), 27 mm; in the data set on A. baumannii ATCC 19606 (ATCC19606, Rep 2), 28 mm; in the data set on A. baumannii ATCC 19606 (ATCC19606, Rep 3) it was 27 mm. Moreover, the zone of inhibition at 64 µg/mL in the data set on MRSA ATCC 43300 (Rep 1) turned out to be 27 mm; in the data set on MRSA ATCC 43300 (Rep 2) it was 28 mm; with MRSA ATCC 43300 (Rep 3), 29 mm.
Take insulin [reference compound]: the “average increase in cell surface GLUT4 translocation compared to untreated control” value with GLUT4 (100 nM, 30 mins) came out at 1.72 fold.
In the case of HPVAITASSNLNLLGFG [0723.02], in the data set with TNF-α, the “TNF-α secretion reduced vs. untreated cells” value is 80%. For the same compound, the “% of Ki67 positive cells in the basal layer of the epidermis” value in data set [1] (D1) was found to be 19.61%; in data set [1] (D5), 6.73%. Besides, the “Morphometric quantification of elastic fibers in the middle dermis (%)” value is listed as 11.75% in data set [2] (D1) and 9.08% in data set [2] (D5). Besides, the “Morphometric quantification of elastic fibers in the superficial dermis (%)” value in data set [2] (D1) is recorded as 6.09%; in data set [2] (D5), 7.59%. The “elastic fibers in the middle dermis compared to the water control” value in data set [2] (D5) is listed as “increase”. For the same compound, the “elastic fibers in the middle dermis compared to control water” value in data set [2] (day 1) is recorded as “increase doubled”.
